The record followed here is patent US6613322B2, “Method for treating a subject suffering from conditions associated with an extracellular zinc sphingomyelinase” (The Trustees of Columbia University in the City of New York, priority 1997, dated 2003).

Data set [1] addresses T1, S-SMase (Homo sapiens, UniProt P17405).
T1 sequence (P17405 47-631): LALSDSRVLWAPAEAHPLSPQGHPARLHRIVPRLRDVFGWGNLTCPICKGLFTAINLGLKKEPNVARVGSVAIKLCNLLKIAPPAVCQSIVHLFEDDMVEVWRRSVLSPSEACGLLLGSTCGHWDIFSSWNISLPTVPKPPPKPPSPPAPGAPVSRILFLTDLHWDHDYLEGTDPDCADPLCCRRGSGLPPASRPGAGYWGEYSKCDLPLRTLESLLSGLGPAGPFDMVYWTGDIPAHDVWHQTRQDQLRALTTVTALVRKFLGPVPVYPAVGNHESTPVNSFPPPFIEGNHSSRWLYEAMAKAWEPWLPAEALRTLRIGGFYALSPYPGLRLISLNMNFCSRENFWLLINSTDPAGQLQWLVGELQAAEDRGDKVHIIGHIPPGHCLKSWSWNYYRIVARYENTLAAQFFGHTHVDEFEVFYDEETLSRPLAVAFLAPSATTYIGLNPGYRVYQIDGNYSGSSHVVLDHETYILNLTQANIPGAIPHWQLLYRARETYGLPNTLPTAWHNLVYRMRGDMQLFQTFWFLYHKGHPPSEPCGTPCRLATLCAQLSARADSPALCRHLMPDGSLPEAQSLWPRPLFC
Description: SMase assay of endothelial cell (HUVEC) conditioned medium. It counts as biochemical. Also on record: endogenous in cells; host or cells: primary HUVEC, 24-h serum-free conditioned medium. Here is the method:
FIGS. 20A-B. Cultured human endothelial cells secrete abundant amounts of S-SMase.
Smase Assay—As previously described (15), the standard 200-μl assay mixture consisted of up to 40 μl of sample (conditioned media or homogenized cells; see above, and a volume of assay buffer (0.1 M sodium acetate, pH 5.0) to bring the volume to 160 μl. The reaction was initiated by the addition of 40 μl substrate (50 pmol [^3H]sphingomyelin) in 0.25 M sucrose containing 3% Triton X-100 (final concentration of Triton X-100 in the 200-μl assay mix=0.6%). When added, the final concentrations of EDTA and Zn^2+ were 5 mM and 0.1 mM, respectively, unless indicated otherwise. The assay mixtures were incubated at 37° C. for no longer than 3 h and then extracted by the method of Bligh and Dyer (37); the lower, organic phase was harvested, evaporated under N2, and fractionated by TLC using chloroform:methanol (95:5). The ceramide spots were scraped and directly counted to quantify [^3H]ceramide. Typically, our assay reactions contained approximately 20 μg of cellular homogenate protein and a volume of conditioned media derived from a quantity of cells equivalent to approximately 50 μg of cellular protein.

For data set [2], the target named is T2, S-SMase (Mus musculus, UniProt Q04519).
T2 construct: endogenous in cells; host or cells: J774.A1 macrophages, serum-free conditioned medium
T2 sequence (Q04519 45-627): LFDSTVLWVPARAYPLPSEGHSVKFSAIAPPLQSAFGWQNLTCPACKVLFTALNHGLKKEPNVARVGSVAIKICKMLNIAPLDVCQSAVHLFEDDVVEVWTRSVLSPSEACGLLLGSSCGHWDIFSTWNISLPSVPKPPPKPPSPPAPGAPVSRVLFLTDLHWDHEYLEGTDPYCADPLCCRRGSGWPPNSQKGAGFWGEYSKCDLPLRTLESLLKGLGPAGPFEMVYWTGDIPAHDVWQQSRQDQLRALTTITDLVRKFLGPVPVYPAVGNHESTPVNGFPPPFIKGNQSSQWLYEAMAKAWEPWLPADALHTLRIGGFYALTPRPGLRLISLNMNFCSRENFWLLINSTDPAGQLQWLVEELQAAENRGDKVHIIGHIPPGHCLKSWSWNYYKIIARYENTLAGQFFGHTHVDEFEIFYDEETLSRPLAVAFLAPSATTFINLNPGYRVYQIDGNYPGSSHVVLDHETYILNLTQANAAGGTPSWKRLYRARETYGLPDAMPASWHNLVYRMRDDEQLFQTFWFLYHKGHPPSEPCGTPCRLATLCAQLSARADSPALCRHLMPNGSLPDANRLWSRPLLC
The experiment in a line: SMase assay of conditioned medium from J774 macrophages (SM micelles, pH 5.0). Conditions: 0.1 mM ZnCl2 versus 5 mM EDTA. The class given is biochemical. As for the experimental part: FIGS. 14A-B. Sequential chelation and addition of Zn^2+ to secreted and intracellular SMase. Serum-free conditioned medium and a cell homogenate from J774 macrophages were prepared as described in “Experimental Procedures”. FIG. 14A, conditioned medium (CM) was assayed for SMase activity using 250 nM [^3H]sphingomyelin in Triton X-100 micelles in the presence of either 5 mM EDTA (first bar) or 0.1 mM ZnCl2 (second bar) for 1 h at 37° C. at pH 5.0. An aliquot of the Zn-activated conditioned medium was then incubated for 18 h in the presence of 10 mM EDTA, 10 mM 1,10-phenanthroline, and 0.6% Triton X-100 at 4° C. (EDTA PHNANTH) and then assayed for SMase activity (third bar). After chelation, a portion of this partially inactivated conditioned medium was then dialyzed against zinc-containing buffer C (150 mM NaCl, 10 mM Tris-HCl, 1 mM ZnCl2, 0.6% Triton X-100, pH 7.4) for 18 h and then assayed for SMase activity (fourth bar). FIG. 14B, an aliquot of cell homogenate (Cell Homgn) was assayed for SMase activity in the presence of assay buffer alone (first bar), 5 mM EDTA (second bar), or 0.1 mM ZnCl2 (third bar). Another aliquot of cell homogenate was incubated for 8 h in the presence of 10 mM EDTA, 10 mm 1,10-phenanthroline, and 0.6% Triton X-100 (EDTA PHNANTH) at 4° C. and then assayed for SMase activity (fourth bar). An aliquot of this chelator-treated cell homogenate was then dialyzed against zinc-containing buffer C for 18 h and then assayed for SMase activity (fifth bar).
SMase Assay—As previously described (Schissel et al., 1996), the standard 200-μl assay mixture consisted of up to 40 μl of sample (conditioned media or homogenized cells; see above) and a volume of assay buffer (0.1 M sodium acetate, pH 5.0) to bring the volume to 160 μl. […] The ceramide spots were scraped and directly counted to quantify [^3H]ceramide. Typically, the assay reactions contained approximately 20 μg of cellular homogenate protein and a volume of conditioned media derived from a quantity of cells equivalent to approximately 50 μg of cellular protein.

In data set [3] the test system is S-SMase secretion by HUVECs. Description: Cytokine regulation of S-SMase secretion by HUVECs (SMase activity in conditioned media). The class given is cell-based, human. Particulars: 18 h, IL-1β 5 ng/ml, interferon-γ 1000 units/ml.
Description: Conditioned media (FIG. 23A) and cell homogenates (FIG. 23B) from these cells were then assayed for SMase activity in the presence or absence of 0.1 mM ZnCl2, respectively.
The cells were then washed 3 times with PBS and incubated for 24 h in 1 ml fresh serum-free media containing 0.2%6 BSA. This 24-h conditioned medium was collected for SMase assays.
Harvesting of Cells and Conditioned Media—Following the incubations described above and in the figure legends, cells were placed on ice and the serum-free conditioned media was removed. The cells were washed two times with ice-cold 0.25 M sucrose and scraped into 0.3 ml and 3.0 ml of this sucrose solution per 35-mm and 100-mm dishes, respectively. Unless indicated otherwise, the scraped cells were disrupted by sonication on ice using three 5-second bursts (Branson 450 Sonifier), and the cellular homogenates were assayed for total protein by the method of Lowry et al. (22) and for SMase activity as described below. The conditioned media were spun at 800×g for 5 min to pellet any contaminating cells and concentrated six-fold using a Centriprep 30 (Amicon; Beverly, Mass.) concentrator (molecular weight cut off=30,000).

Consider `[Cl-].[Cl-].[Zn+2]` [Zn^2+, ZnCl2], for which, in data set [1], the “stimulation of SMase secreted by endothelial cells by exogenous Zn2+” value is listed as “two-fold”. For the same compound, the “increase of enzymatic activity of S-SMase by Zn2+” value in data set [1] (S-SMase from IL-1β-treated HUVECs) is given as 1.77±0.03 fold; in data set [1] (S-SMase from untreated HUVECs) it was 1.78±0.17 fold. For the same compound, the “activation of S-SMase” value in data set [2] is given as “markedly activated”.

IL-1β: human recombinant interleukin-1β: in data set [3], the “increase of S-SMase activity / secretion (conditioned media)” value is roughly 3 fold.
